≈ marks a conversion by molar mass, not a printed value. Like-named read-outs stand apart in the source and are kept apart here. Marks after values point to notes of the source that are not given here. Blank lines part the entries; values can stand above or below the compound they belong to.
Experiments:
Assay type in all cases: physicochemical
[1] = Equilibrium solution pH of non-buffered aqueous medium after adding the compound; settings: for Equilibrium solution pH: non-buffered aqueous medium, ambient temperature
Method: Determination of the pH—Solubility Profile of Polymorphs.
About 3 mL aqueous solutions of various concentrations of either HCl or NaOH, providing a pH from 1-13, were transferred to a 10 ml glass vial. A sufficient amount of the polymorph was added. The vials were wrapped with aluminum foil and manually shaken. They were allowed to sit in the fume hood overnight prior to any further treatment.
As expected, the equilibrium solubility of this compound is higher at lower solution pH (Table A). However, the dissolution of a particle in a dissolution medium depends on the pH in the diffusion layer. The pH value of the diffusion layer in intimate contact with the solid (pHh=0) may be obtained from equilibrium pH of the solution, measured by a pH meter. Results are presented in Table B. When the initial pH is higher than 10, the solubility of 5-[5-fluoro-2-oxo-1,2-dihydroindol-(3Z)-ylidenmethyl]-2,4-dimethyl-1 H-pyrrole-3-carboxylic acid (2-pyrrolidin-1-ylethyl)-amide is very low. Therefore, the pH of the solution at equilibrium is almost not changed. On the other hand, if the initial pH<10, more 5-[5-fluoro-2-oxo-1,2-dihydroindol-(3Z)-ylidenmethyl]-2,4-dimethyl-1H-pyrrole-3-carboxylic acid (2-pyrrolidin-1-ylethyl)-amide goes into solution and the equilibrium solution pH is higher than the initial pH (Table B).

[2] = Estimation of the solubility of a polymorph in various solvents; settings: thermodynamic from solid
Method: Estimation of the Solubility of a Polymorph in Various Solvents.
Approximately 1.5 mg of the polymorph, was transferred to 10 mL glass vials (tared) and was weighed (accurate to 0.1 mg). Solvents were added to the vials (one solvent each vial) in a step-wise fashion. After each addition, the vial was capped and shaken. The dissolution of solid was visually observed. If no obvious dissolution was observed, more solvent was added immediately. If dissolution was apparent, the vial was left on the bench for at least 30 minutes before the next addition of solvent. This step was repeated until no crystals were visible against a black and a white background. The solubility was then bracketed by dividing the weight by the final volume and the volume before the last addition. If a solid remained after the addition of 10 mL solvent, the solubility was expressed as less than the weight divided by the final volume. If the solid was completely dissolved after the first addition of solvent, the solubility was expressed as greater than the weight divided by the solvent volume. The solubility values were expressed as mg/mL. All experiments were conducted at room temperature.
The estimated solubilities of 5-[5-fluoro-2-oxo-1,2-dihydroindol-(3Z)-ylidenmethyl]-2,4-dimethyl-1H-pyrrole-3-carboxylic acid (2-pyrrolidin-1-ylethyl)-amide in various solvents are presented in Table A. The experiments were carried out using polymorph I at room temperature. The solubilities may be divided into three groups.

[3] = pKa
[4] = Slurry conversion (suspension crystallization), resulting solid identified by PXRD; settings: room temperature; for Resulting solid by PXRD: stirred 2 weeks
Method: To determine the relative thermodynamic stability relationship between two polymorphs, a slurry conversion experiment was also studied at room temperature using PXRD.
Polymorph I, 20 mg, was suspended in various solvents alone with trace amount of polymorph II seeding crystals in 10 mL glass vials. The suspensions were stirred by magnetic stirring bars for 2 weeks before the solids were filtered and analyzed by PXRD. […] Because the solubility in THF is higher than that in acetone (Table A), low solubility is not the reason for the slow conversion kinetics.

[5] = Suspension of polymorphs in pH 2 dissolution medium (HCl salt formation test); settings: for Color change of suspended particles: at least 15 minutes after suspension; for Appearance of suspension: one day after preparation
Source text: To further test the HCl salt formation hypothesis. Both polymorph I and II were suspended in the above dissolution medium. […] It is also possible that compaction prior to the IDR experiment modify the crystals of polymorph I and render it the ability of rapid conversion. The XRD pattern of polymorph I pellets compressed at various pressures show some degree of amorphous content, which may be connected to its rapid salt formation during the IDR experiment.

[6] = Rotating disc intrinsic dissolution rate (IDR) determination; settings: for Color change of pellet side exposed to dissolution medium (solid-state conversion): 0.05M KCl, pH 2 buffer, original pellet yellow; for IDR (n = 3): pH = 2 buffer (0.01 N HCl and 0.05 M KCl) at 23° C.
Method: Rotating Disc Intrinsic Dissolution Rate (IDR) Determination. The IDR was measured using a fiber optic UV automated dissolution system. The dissolution process was monitored in some instances continuously at 426.2 nm using the fiber optic probe with 10 data points taken per minute. To prepare the compressed disc for the experiment, the powders were compressed in a stainless steel (SS) die, (1¼″ dia×1″, ID 3/16″) using a high speed steel (HSS) punch (diameter 3/16″ and length 3½″). The HSS punch was inserted into the die to a distance of about ¾″, leaving about ¼″ for placement of about 10 mg of the drug into the die cavity. A SS base plate (diameter ¼″) was placed to cover the cavity. The entire assembly was then secured by a 2-bolt holder. A Carver press was used to compress the powder at to ˜1,000 lbs (˜37,000 psi) for 3 minutes. The die and holder was removed from the Carver press and the punch was pulled back a little to allow the pellet to relax/expand. The die was then tightly attached on the HSS punch by a set-screw. The entire punch and die assembly containing the drug pellet with one face of the drug pellet exposed was removed as a unit from the holder and was attached to an electric motor. The die was rotated at 300 rpm and was lowered into the dissolution medium 3 min after the initiation of the data collection program. The dissolution medium was degassed and was contained in a 500 mL water jacketed beaker (Pyrex, No.1000). The data collect during the first 3 min provided a baseline value for each dissolution experiment. The dissolution medium consisted of pH=2 solution (0.01 N HCl and 0.05 M KCl). The die was positioned such that the drug compact was about 2.5″ from the bottom of the 500 mL dissolution vessel and about the same distance from the liquid surface. The intrinsic dissolution profile was plotted using Microsoft Excel and the intrinsic dissolution rate was calculated automatically by the program according to equation (1). The volume of dissolution medium was 300 mL. The surface area of the pellet exposed to dissolution medium was 0.177 cm^2. The time period for a dissolution run was usually 15 min but was varied as needed.

pH of the diffusion layer in contact with the solid (pHh=0) ([1]; bulk dissolution medium pH as low as 1.4): > 5
Solubility at initial pH higher than 10 ([1]; initial pH higher than 10, aqueous): very low
Equilibrium solution pH ([1]; initial solution pH 1.43): 5.36
Equilibrium solution pH ([1]; initial solution pH 2.19): 5.20
Equilibrium solution pH ([1]; initial solution pH 3.22): 6.98
Equilibrium solution pH ([1]; initial solution pH 5.47): 8.13
Equilibrium solution pH ([1]; initial solution pH 6.73): 8.31
Equilibrium solution pH ([1]; initial solution pH 7.24): 8.49
Equilibrium solution pH ([1]; initial solution pH 7.61): 8.87
Equilibrium solution pH ([1]; initial solution pH 10.07): 9.86
Equilibrium solution pH ([1]; initial solution pH 11.53): 11.61
Equilibrium solution pH ([1]; initial solution pH 12.50): 12.52
Equilibrium solution pH ([1]; initial solution pH 13.20): 13.18
solubility ([2]; DMF and pH<=2 water (one solvent per vial), organic solvent or mixture, DMSO, DMF and pH<=2 water, polymorph I, room temperature, read-out: Solubility (Group III solvents)): > 1000 µg/mL
solubility ([2]; dioxane and THF (one solvent per vial), organic solvent or mixture, methanol, ethanol, dioxane and THF, polymorph I, room temperature, read-out: Solubility (Group II solvents)): 100 to 400 µg/mL (≈ 252 to 1010 µM)
solubility ([2]; organic solvent or mixture, isopropyl alcohol, CH2Cl2, ethyl acetate, acetonitrile, acetone, chloroform, toluene, hexane and pH>6 water, polymorph I, room temperature, read-out: Solubility (Group I solvents)): < 300 µg/mL
pKa [3]: 8.5
Structure (SMILES): Cc1[nH]c(/C=C2\C(=O)Nc3ccc(F)cc32)c(C)c1C(=O)NCCN1CCCC1 [5-[5-fluoro-2-oxo-1,2-dihydroindol-(3Z)-ylidenmethyl]-2,4-dimethyl-1H-pyrrole-3-carboxylic acid (2-pyrrolidin-1-ylethyl)-amide]

Resulting solid by PXRD ([4]; Acetone suspension): converts to polymorph II
Resulting solid by PXRD ([4]; Methanol suspension): converts to polymorph II
Resulting solid by PXRD ([4]; THF suspension): appears stable
Color change of suspended particles [5]: no change of color
Appearance of suspension [5]: orange-red needle-shaped crystals
solubility ([2]; aqueous buffer, Water (pH = 2), 23° C., read-out: Solubility): 3110 µg/mL (≈ 7840 µM)
solubility ([2]; aqueous buffer, Water (pH = 6), 23° C., read-out: Solubility): 5 µg/mL (≈ 12.6 µM)
solubility ([2]; organic solvent or mixture, Acetone, 23° C., read-out: Solubility): < 160 µg/mL
solubility ([2]; organic solvent or mixture, Acetonitrile, 23° C., read-out: Solubility): < 80 µg/mL
solubility ([2]; organic solvent or mixture, CH2Cl2, 23° C., read-out: Solubility): < 120 µg/mL
solubility ([2]; organic solvent or mixture, Chloroform, 23° C., read-out: Solubility): < 110 µg/mL
solubility ([2]; organic solvent or mixture, DMF, 23° C., read-out: Solubility): > 1500 µg/mL
solubility ([2]; organic solvent or mixture, DMSO, 23° C., read-out: Solubility): 1500 to 3000 µg/mL (≈ 3780 to 7570 µM)
solubility ([2]; organic solvent or mixture, Dioxane, 23° C., read-out: Solubility): 180 to 200 µg/mL (≈ 454 to 504 µM)
solubility ([2]; organic solvent or mixture, Ethyl acetate, 23° C., read-out: Solubility): < 280 µg/mL
solubility ([2]; organic solvent or mixture, Hexane, 23° C., read-out: Solubility): < 130 µg/mL
solubility ([2]; organic solvent or mixture, Isopropanol, 23° C., read-out: Solubility): < 140 µg/mL
solubility ([2]; organic solvent or mixture, PEG 400, 23° C., read-out: Solubility): 300 to 430 µg/mL (≈ 757 to 1080 µM)
solubility ([2]; organic solvent or mixture, THF, 23° C., read-out: Solubility): 320 to 400 µg/mL (≈ 807 to 1010 µM)
solubility ([2]; organic solvent or mixture, Toluene, 23° C., read-out: Solubility): < 130 µg/mL
solubility ([2]; organic solvent or mixture, ethanol, 23° C., read-out: Solubility): 170 to 190 µg/mL (≈ 429 to 479 µM)
solubility ([2]; organic solvent or mixture, methanol, 23° C., read-out: Solubility): 210 to 310 µg/mL (≈ 530 to 782 µM)
Color change of pellet side exposed to dissolution medium (solid-state conversion) [6]: orange-red
IDR (n = 3) [6]: 1.08 ± 0.09^c mg/min/cm^2
Structure (SMILES): Cc1[nH]c(/C=C2\C(=O)Nc3ccc(F)cc32)c(C)c1C(=O)NCCN1CCCC1 [polymorph I, 5-[5-fluoro-2-oxo-1,2-dihydroindol-(3Z)-ylidenmethyl]-2,4-dimethyl-1H-pyrrole-3-carboxylic acid (2-pyrrolidin-1-ylethyl)-amide]

Color change of suspended particles [5]: no change of color
Appearance of suspension [5]: orange-red needle-shaped crystals
Color change of pellet side exposed to dissolution medium (solid-state conversion) [6]: No obvious color change
IDR of polymorph II relative to apparent IDR of polymorph I ([6]; pH 2 buffer at 23° C.): about three times
IDR (n = 3) [6]: 3.54 ± 0.15 mg/min/cm^2
Structure (SMILES): Cc1[nH]c(/C=C2\C(=O)Nc3ccc(F)cc32)c(C)c1C(=O)NCCN1CCCC1 [polymorph II, 5-[5-fluoro-2-oxo-1,2-dihydroindol-(3Z)-ylidenmethyl]-2,4-dimethyl-1H-pyrrole-3-carboxylic acid (2-pyrrolidin-1-ylethyl)-amide]
Relative thermodynamic stability of the polymorphs [4]: thermodynamically more stable than polymorph I
